In PMC13114161 (Antibiotics, 2026):
Like-named read-outs stand apart in the source and are kept apart here.

Key:
[1] = tested on: P. aeruginosa DA7232 (gyrA-T83I, parC-S80L); assay: Levofloxacin MIC potentiation; format: cell-based, Pseudomonas aeruginosa; conditions: DA7232; […] TXA11114
Procedure: (§1) MIC assays for potentiation of antimicrobial activity against P. aeruginosa were performed as described previously.

CYP2C9 = molecular target: T1, CYP2C9 (Homo sapiens, UniProt P11712); assay: Cytochrome P450 inhibition; format: in vitro ADME; conditions: human liver microsomes; read-out: CYP Inhibition IC50, 2C9
T1 construct: from tissue; host or cells: human liver microsomes
Procedure: (§2) Inhibition of CYP1A2, CYP2D6, CYP2C9, CYP2C19, and CYP3A4 by TXA11114 was assessed in human liver microsomes by measuring the inhibition of probe substrate metabolism. Phenacetin, bufuralol, diclofenac, S-mephenytoin, and midazolam were used as probe substrates for CYP1A2, CYP2D6, CYP2C9, CYP2C19, and CYP3A4, respectively. Corresponding metabolites (acetaminophen, OH-bufuralol, 4-OH diclofenac, 4-OH mephenytoin, and 1-OH midazolam) were quantified by LC-MS/MS. Selective inhibitors (fluvoxamine (CYP1A2), quinidine (CYP2D6), sulfaphenazole (CYP2C9), ticlopidine (CYP2C19), and ketoconazole (CYP3A4)) were used as positive controls. Test and control compounds, prepared in DMSO at various concentrations, were spiked into 2× microsomal reaction mixtures, and 50 µL aliquots were transferred to individual wells. Probe substrates (25 µL, 4× concentration) were added to the respective wells and pre-incubated for 5 min at 37 °C. Reactions were initiated by the addition of 25 µL NADPH (4×) and incubated for 5 min (CYP3A4), 10 min (CYP1A2, CYP2D6, CYP2C9), or 20 min (CYP2C19). Reactions were quenched with 100 µL ice-cold acetonitrile containing glipizide as an internal standard. Plates were centrifuged at 4000 rpm for 15 min, and 100 µL supernatants were analyzed by LC-MS/MS in MRM mode. […] Percent inhibition was calculated as 100 − percent activity. IC50 values were determined using GraphPad Prism (version 5.02).

CYP2C19 = molecular target: T2, CYP2C19 (Homo sapiens, UniProt P33261); assay: Cytochrome P450 inhibition; format: in vitro ADME; conditions: human liver microsomes; read-out: CYP Inhibition IC50, 2C19
T2 construct: from tissue; host or cells: human liver microsomes
Procedure: as §2

CYP1A2 = molecular target: T3, CYP1A2 (Homo sapiens, UniProt P05177); assay: Cytochrome P450 inhibition; format: in vitro ADME; conditions: human liver microsomes; read-out: CYP Inhibition IC50, 1A2
T3 construct: from tissue; host or cells: human liver microsomes
Procedure: as §2

[2] = tested on: multidrug-resistant P. aeruginosa clinical isolates from the CDC-FDA; assay: Levofloxacin MIC potentiation, CDC-FDA isolates; format: cell-based, Pseudomonas aeruginosa; conditions: for Levofloxacin MIC fold difference, +EPI / Levofloxacin MIC, +EPI: EPI […] (TXA11114, TXA09155) or 50 μg/mL (MC-04,124, PAβN)
Procedure: In a comparative study, the levofloxacin-potentiating activity of TXA11114 was evaluated alongside the well-characterized EPIs PAβN and MC-04,124 using P. aeruginosa clinical isolates obtained from the CDC and FDA Antimicrobial Resistance Isolate Bank and the Walter Reed Army Institute of Research (WRAIR). […] While PAβN has been widely studied in laboratory strains, its activity against the CDC/FDA P. aeruginosa panel has been reported only sparingly, limiting direct cross-study comparisons.
as §1

P. aeruginosa ATCC 27853 [3] = assay: Neutropenic murine thigh infection model; format: in vivo, CD-1 mice
Procedure: Female CD-1 mice (6–8 weeks old; 22 ± 2 g) were obtained from Envigo Laboratories, quarantined for at least 3 days, and housed 5 per cage in accordance with the approved IACUC protocol (IACUC-2017-0049). Neutropenia was induced by intraperitoneal (IP) administration of cyclophosphamide (Cytoxan) at 150 mg/kg on day 4 and 100 mg/kg on day 1 prior to infection.
Mice were infected intramuscularly (IM) in the right thigh with 0.1 mL of bacterial suspension containing approximately 1 × 10^5–10^6 CFU/mL. […] At 2 h or 24 h post-infection, mice were euthanized by CO2 asphyxiation, and thighs were aseptically excised and placed in 2 mL sterile phosphate-buffered saline (PBS) on ice. Tissue homogenization was performed using a Polytron PT10-35 (12 mm aggregate, Kinematica, Malters, Switzerland).
Plates were incubated overnight at 37 °C, and colonies were enumerated the following day.

P. aeruginosa ATCC 27853 [4] = assay: MIC and levofloxacin potentiation (broth microdilution); format: cell-based, Pseudomonas aeruginosa; conditions: for MIC: Pseudomonas aeruginosa, ATCC27853
[5] = tested on: P. aeruginosa CDC AR-0232, AR-0248, AR-0249; format: cell-based, Pseudomonas aeruginosa
Procedure: Frequency-of-resistance studies were carried out as described previously.

[6] = combined CDC/FDA and WRAIR MDR isolate sets
[7] = +24 hr, TXA11114 30 mg/kg IV QID alone

T1 sequence (P11712 whole entry): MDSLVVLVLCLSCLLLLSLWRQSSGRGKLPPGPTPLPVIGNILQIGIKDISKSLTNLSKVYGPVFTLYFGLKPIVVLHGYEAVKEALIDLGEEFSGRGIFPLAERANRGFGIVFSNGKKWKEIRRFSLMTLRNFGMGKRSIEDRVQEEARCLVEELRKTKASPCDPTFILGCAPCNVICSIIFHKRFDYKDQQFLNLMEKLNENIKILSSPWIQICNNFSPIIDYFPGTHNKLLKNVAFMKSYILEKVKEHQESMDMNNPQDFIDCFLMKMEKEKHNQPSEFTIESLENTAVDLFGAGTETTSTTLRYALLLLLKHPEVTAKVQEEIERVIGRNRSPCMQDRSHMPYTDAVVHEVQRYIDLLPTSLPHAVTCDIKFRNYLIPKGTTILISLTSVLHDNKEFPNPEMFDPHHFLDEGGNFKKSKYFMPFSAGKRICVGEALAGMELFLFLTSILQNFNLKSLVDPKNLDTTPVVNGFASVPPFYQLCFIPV
T3 sequence (P05177 whole entry): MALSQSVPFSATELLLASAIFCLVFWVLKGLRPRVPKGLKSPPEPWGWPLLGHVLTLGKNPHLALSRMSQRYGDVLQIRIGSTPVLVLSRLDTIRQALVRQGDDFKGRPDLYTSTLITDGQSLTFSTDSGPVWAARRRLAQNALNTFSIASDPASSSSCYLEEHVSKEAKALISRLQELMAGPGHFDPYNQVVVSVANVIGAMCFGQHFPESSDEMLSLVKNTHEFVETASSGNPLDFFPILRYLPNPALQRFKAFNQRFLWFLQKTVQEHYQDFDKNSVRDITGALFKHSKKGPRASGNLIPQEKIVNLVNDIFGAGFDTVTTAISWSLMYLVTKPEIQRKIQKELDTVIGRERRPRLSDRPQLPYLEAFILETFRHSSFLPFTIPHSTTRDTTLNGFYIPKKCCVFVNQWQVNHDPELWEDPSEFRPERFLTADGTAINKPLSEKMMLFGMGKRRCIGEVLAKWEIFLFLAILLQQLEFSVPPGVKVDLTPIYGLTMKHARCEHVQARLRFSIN
T2 sequence (P33261 whole entry): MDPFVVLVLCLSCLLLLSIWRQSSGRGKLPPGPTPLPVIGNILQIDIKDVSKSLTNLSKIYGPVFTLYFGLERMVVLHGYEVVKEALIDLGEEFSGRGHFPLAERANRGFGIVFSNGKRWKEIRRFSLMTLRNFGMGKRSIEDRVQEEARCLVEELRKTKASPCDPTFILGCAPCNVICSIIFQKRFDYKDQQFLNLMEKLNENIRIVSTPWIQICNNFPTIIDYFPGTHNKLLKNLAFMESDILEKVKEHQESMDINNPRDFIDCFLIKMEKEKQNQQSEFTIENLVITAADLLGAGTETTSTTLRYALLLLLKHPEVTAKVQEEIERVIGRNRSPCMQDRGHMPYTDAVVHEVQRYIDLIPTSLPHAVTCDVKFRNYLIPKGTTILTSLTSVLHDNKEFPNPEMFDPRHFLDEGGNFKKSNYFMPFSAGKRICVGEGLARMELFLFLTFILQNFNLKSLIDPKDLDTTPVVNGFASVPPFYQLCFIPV

SMILES: NCC(F)C[C@@H](N)CNC(=O)c1cc2ccc(-c3ccc(F)cc3)cc2[nH]1 (stereo partly drawn) [TXA11114, N-((2R)-2,5-diamino-4-fluoropentyl)-6-(4-fluorophenyl)-1H-indole-2-carboxamide]
- Levofloxacin MIC in presence of TXA11114 [1]: 1 µg/mL
- IC50 (CYP2C9): > 100 µM
- IC50 (CYP2C19): > 100 µM
- IC50 (CYP1A2): > 100 µM
- Levofloxacin MIC fold difference, +EPI ([2]; AR-0229): 32 fold
- Levofloxacin MIC, +EPI ([2]; AR-0229): 2 µg/mL
- Levofloxacin MIC fold difference, +EPI ([2]; AR-0232): 16 fold
- Levofloxacin MIC, +EPI ([2]; AR-0232): 0.5 µg/mL
- Levofloxacin MIC fold difference, +EPI ([2]; AR-0233): 8 fold
- Levofloxacin MIC, +EPI ([2]; AR-0233): 0.5 µg/mL
- Levofloxacin MIC fold difference, +EPI ([2]; AR-0234): 32 fold
- Levofloxacin MIC, +EPI ([2]; AR-0234): 0.25 µg/mL
- Levofloxacin MIC fold difference, +EPI ([2]; AR-0239): 4 fold
- Levofloxacin MIC, +EPI ([2]; AR-0239): 8 µg/mL
- Levofloxacin MIC fold difference, +EPI ([2]; AR-0242): 4 fold
- Levofloxacin MIC, +EPI ([2]; AR-0242): 2 µg/mL
- Levofloxacin MIC fold difference, +EPI ([2]; AR-0244): 8, (8) fold
- Levofloxacin MIC, +EPI ([2]; AR-0244): 8, (8) μg/mL
- Levofloxacin MIC fold difference, +EPI ([2]; AR-0246): 8, (8) fold
- Levofloxacin MIC, +EPI ([2]; AR-0246): 8, (8) μg/mL
- Levofloxacin MIC fold difference, +EPI ([2]; AR-0248): 8 fold
- Levofloxacin MIC, +EPI ([2]; AR-0248): 2 µg/mL
- Levofloxacin MIC fold difference, +EPI ([2]; AR-0249): 16 fold
- Levofloxacin MIC, +EPI ([2]; AR-0249): 4 µg/mL
- Levofloxacin MIC fold difference, +EPI ([2]; AR-0252): 8 fold
- Levofloxacin MIC, +EPI ([2]; AR-0252): 4 µg/mL
- Levofloxacin MIC fold difference, +EPI ([2]; AR-0253): 16 fold
- Levofloxacin MIC, +EPI ([2]; AR-0253): 0.125 µg/mL
- Levofloxacin MIC fold difference, +EPI ([2]; AR-0264): 16 fold
- Levofloxacin MIC, +EPI ([2]; AR-0264): 4 µg/mL
- Share of CDC isolates with levofloxacin MIC reduced ≥8-fold (potentiated) ([2]; TXA11114 […], PAβN and MC-04,124 50 µg/mL): approximately 85%
- Share of isolates in which levofloxacin was potentiated [2, 6]: > 90%
- Share of strains restored to levofloxacin susceptibility at or below EUCAST breakpoint (≤2 μg/mL) [2, 6]: approximately 60%
- Reductions in levofloxacin MIC values in many strains ([2]; diverse MDR clinical isolates): 4- to 32 fold
- Effect of EPI alone on bacterial burden, thigh (P. aeruginosa ATCC 27853 [3]; 30 mg/kg, IV, QID): had no impact on bacterial burden
- Mean Log10 CFU (thigh) (P. aeruginosa ATCC 27853 [3]; [7]): 8.95 log10 CFU
- Mean Log10 CFU Change vs +2 hr Control, Δlog10 (treatment-baseline), thigh (P. aeruginosa ATCC 27853 [3]; [7]): 2.87 log10 CFU
- Mean Log10 CFU Change vs +24 hr Control, thigh (P. aeruginosa ATCC 27853 [3]; TXA11114 30 mg/kg IV QID alone): 0.13 log10 CFU
- CFU reduction by combination, exceeding levofloxacin alone (P. aeruginosa ATCC 27853 [3]; murine thigh and lung infection models): > 1 log10 CFU
- Fold MIC reduction [LVX/EPI-LVX] (P. aeruginosa ATCC 27853 [4]; EPI at […], ATCC 27853): 8 fold
- MIC (P. aeruginosa ATCC 27853 [4]; ATCC 27853 parent strain (Table S1), read-out: MIC): 100 µg/mL
- MIC (P. aeruginosa ATCC 27853 [4]; EPI alone, ATCC 27853, read-out: EPI MIC): 100 µg/mL
- LVX MIC (+EPI) (P. aeruginosa ATCC 27853 [4]; levofloxacin MIC with EPI at […], ATCC 27853): 0.125 µg/mL
- Frequency of Resistance [5]: <1.00 × 10^−10
- Frequency of Resistance ([5]; CDC AR-0248, levofloxacin 4× MIC (64 μg/mL) + TXA11114 […]): <1.47 × 10^−10
- Frequency of Resistance ([5]; CDC AR-0249, levofloxacin 4× MIC (256 μg/mL) + TXA11114 […]): <8.77 × 10^−11
